Patent US4297276A, “Thymosin beta 3 and beta 4” (Hoffman-La Roche Inc., priority 1980, dated 1981)
Numbered stars: 1 amine (or outer) side, 2 acyl side, 3 side chain; on linkers, the order of the positions; unused ones are H or OH. Bridge positions count the residues as written; N and C are the ends. Square brackets hold non-standard residues; d marks the D form. Peptide text beside a SMILES is read from it. I, II: the chains in the order shown. Actinocin(9to1) = Cc1c2oc3c(C)ccc(C(=O)[*:1])c3nc-2c(C(=O)[*:2])c(N)c1=O; NMeV = CN[C@H](C(=O)O)C(C)C; Sar = CNCC(=O)O

What was measured:
[1] = test system: terminal deoxynucleotidyl transferase (TdT); assay: In vitro induction of TdT in fraction B bone marrow cells from NIH Swiss nu/nu mice; assay type: cell-based; details: for TdT induction relative to the thymosin fraction 5 level: BSA fraction B from bone marrow; for TdT specific activity: peak I activity only, incubation 18 hours with 50 ng/ml
From the text: The method of Raidt et al., J. Exp. Med. 128, 681 (1968) was used to fractionate different cell suspensions from spleen, thymus, lymph nodes or bone marrow. Four layers of cells were formed at the interfaces of the discontinuous BSA gradient: Fraction A between 10% and 23% BSA; fraction B between 23-26%; fraction C between 26-29%; and fraction D between 29-33% BSA. BSA (Path-O-Cyte 5, lots 25 and 26) was obtained from Miles Research Products (Elkhart, Ind.). Fractionated cells were washed three times in Ham's F-12 medium.
(§1) The procedure for enzyme extraction has been described previously by Pazmino et al., J. Immunol. 119, 494 (1977).
(§2) The TdT assay was adapted from Kung et al, J. Exp. Med. 141, 855 (1975). One unit of enzyme activity was defined as the amount catalyzing the incorporation of 1 pmol of dGTP into acid insoluble material per hour. The specific activity was calculated from the total enzyme activity recovered from phosphocellulose per 10^8 nucleated viable cells.
Ten daily injections of 100 μg were given intraperitoneally to six-week-old NIH Swiss nu/nu, which were sacrificed 24 hours after the last injection. For the in vitro induction experiments, cells were washed three times after BSA gradient fractionation in Ham's F-12 medium containing 100 U/ml penicillin, 100 μg/ml streptomycin and 10 μg/ml gentomycin. After being washed, cell concentrations were adjusted to 1×10^8 cells/dish in 20 ml of Ham's F-12 medium containing antibiotics, 5% fetal bovine serum (Flow Laboratories, Rockville, Md.) and different concentrations of thymosin or spleen fraction 5 or of any of the different peptides isolated from thymosin. After incubation for various periods of time, cells were collected, washed twice with Ham's F-12 and extracted as previously described for TdT activity.
The following peptides, isolated from thymosin, were assayed for their ability to induce TdT in vitro: α1, β1, β3, β4, and synthetic α-1.
(§3) Actinomycin D at 0.5 μg/ml was incubated for 12 hours in the presence of thymosin with fraction B from the bone marrow of NIH Swiss nu/nu mice to study their effect on TdT induction. To follow the effect of Actinomycin D on RNA synthesis, cells were labeled with [^3 H] uridine (10 μCi/ml) for the last 90 minutes of incubation.

RNA synthesis = assay: Effect of Actinomycin D on RNA synthesis ([3H] uridine labeling) in fraction B bone marrow cells; assay type: cell-based, mice; details: 0.5 μg/ml, 12 hours, in the presence of thymosin
Procedure: as §3

[2] = test system: terminal deoxynucleotidyl transferase (TdT); assay: In vivo TdT assay in thymocytes from hydrocortisone acetate treated C57BL/6J mice; details: for TdT specific activity: daily for 9 to 11 days, thymocytes
Procedure: as §1, §2
Thymosin activity was also tested by a in vivo TdT assay. Different doses of thymosin fraction 5 and other purified thymosin polypeptides were injected into hydrocortisone acetate treated C57BL/6J mice daily for 9 to 11 days. The animals were sacrificed, thymocytes prepared and TdT activity determined using the method described by Pazmino et al., J. Immunol. 119, 494 (1977). […]

[3] = Isoelectric focusing (isoelectric point); assay type: physicochemical
Procedure: Isoelectric focusing was conducted for 90 minutes using a constant power of 25 watts (LKB Model 2103 power supply). The gels were fixed in 20% trichloroacetic acid for one hour. They were stained in 0.1% Coomassie Blue in 20% trichloroacetic acid and destained in 10% trichloroacetic acid.

[4] = test system: TdT positive cells in T-cell populations; details: partially purified peptides; Low and Goldstein 1978; cited from earlier work
[5] = FIG. 3, bone marrow fraction B cells

Cc1c2oc3c(C)ccc(C(=O)N[C@@H]4C(=O)N[C@H](C(C)C)C(=O)N5CCC[C@H]5C(=O)N(C)CC(=O)N(C)[C@@H](C(C)C)C(=O)O[C@@H]4C)c3nc-2c(C(=O)N[C@@H]2C(=O)N[C@H](C(C)C)C(=O)N3CCC[C@H]3C(=O)N(C)CC(=O)N(C)[C@@H](C(C)C)C(=O)O[C@@H]2C)c(N)c1=O [actinomycin D, Actinomycin D, reference compound] (I: T[dV]P[Sar][NMeV] / II: T[dV]P[Sar][NMeV]; ester I:1-I:C, II:1-II:C; linker I:N-II:N via Actinocin(9to1))
effect on induction of TdT by thymosin ([1]; 0.5 μg/ml actinomycin D, 12 hours, in the presence of thymosin): inhibited, as is the induction of TdT | inhibition of RNA synthesis (RNA synthesis): greater than 95%

Thymosin β3
TdT specific activity ([2]; 1 μg/infection): 2758.6 p moles (3HdGTP/30 min/10^8 ce | TdT specific activity ([2]; 10 μg/infection): 2954.3 p moles (3HdGTP/30 min/10^8 ce | activity in inducing TdT in vivo compared with thymosin fraction 5 ([2]; One μg of β3 vs 100 μg of thymosin fraction 5): as active in inducing TdT in vivo as 100 μg of thymosin fraction 5 | shape of TdT dose response [1]: increases as the doses increase | TdT induction relative to the thymosin fraction 5 level [1]: ~80% | concentration with significant TdT induction [1, 5]: 1 ng/mL | optimal concentration for TdT induction [1, 5]: 10 ng/mL | effect on TdT induction at higher concentrations ([1]; FIG. 3, β3 even at 500 ng/ml): no inhibition of induction was observed | TdT specific activity [1]: 145.0 picomoles 3HdGTP/hour/10^8 cel | isoelectric point (pI) [3]: 5.2 | induction of TdT positive cells in T-cell populations [4]: induce TdT positive cells

Thymosin β4
shape of TdT dose response [1]: increases as the doses increase | TdT induction relative to the thymosin fraction 5 level [1]: 30% | TdT specific activity [1]: 58.0 picomoles 3HdGTP/hour/10^8 cel | isoelectric point (pI) [3]: 5.1 | induction of TdT positive cells in T-cell populations [4]: induce TdT positive cells
